Where a name gives a salt, the structure may show the parent alone.
Assays:
MCF7 [1] = experiment: Cytotoxicity against human MCF7 cells assessed as cell growth inhibition by MTT assay; format: functional, cell-based
HCT-116 = experiment: Cytotoxicity against human HCT-116 cells assessed as cell growth inhibition; format: functional, cell-based
[2] = Inhibition of Influenza virus neuraminidase; set-up: species or system unidentified influenza virus
[3] = molecular target: T1, M-phase inducer phosphatase 2 (Homo sapiens, UniProt P30305); experiment: Inhibition of recombinant human CDC25B expressed in Escherichia coli using pnitrophenyl phosphate as substrate preincubated for 15 mins followed by substrate addition measured after 60 mins by absorbance based assay
T1 sequence (P30305 whole entry): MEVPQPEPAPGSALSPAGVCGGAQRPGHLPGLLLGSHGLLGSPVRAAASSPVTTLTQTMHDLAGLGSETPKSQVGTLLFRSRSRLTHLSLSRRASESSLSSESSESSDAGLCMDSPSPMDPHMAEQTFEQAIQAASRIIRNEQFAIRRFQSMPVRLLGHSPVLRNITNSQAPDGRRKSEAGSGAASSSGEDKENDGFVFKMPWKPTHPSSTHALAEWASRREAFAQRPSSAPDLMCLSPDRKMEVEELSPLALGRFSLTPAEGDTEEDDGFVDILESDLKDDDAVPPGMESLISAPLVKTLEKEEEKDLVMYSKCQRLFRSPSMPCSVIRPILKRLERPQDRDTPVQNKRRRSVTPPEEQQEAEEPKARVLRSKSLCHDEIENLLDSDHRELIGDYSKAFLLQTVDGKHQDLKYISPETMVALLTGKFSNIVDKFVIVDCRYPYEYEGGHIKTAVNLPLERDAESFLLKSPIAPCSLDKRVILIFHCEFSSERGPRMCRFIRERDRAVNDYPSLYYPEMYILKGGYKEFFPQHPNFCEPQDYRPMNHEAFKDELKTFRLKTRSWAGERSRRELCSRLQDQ

[4] = molecular target: Tyrosine-protein phosphatase non-receptor type 6 (Homo sapiens, UniProt P29350); experiment: Inhibition of recombinant human SHP1 expressed in Escherichia coli using pnitrophenyl phosphate as substrate preincubated for 15 mins followed by substrate addition measured after 60 mins by absorbance based assay
HL-60 = experiment: Inhibition of cell adhesion of human HL-60 cells to human LPS-stimulated HUVEC cells incubated for 4 hrs with HUVEC cells followed by MTT-labeled HL-60 cells addition measured after 40 mins by absorbance based microplate reader analysis; format: functional
[5] = system: Panel NCI-60 (60 carcinoma cell lines); experiment: Cytotoxicity against human Panel NCI-60 (60 carcinoma cell lines) assessed as cell growth inhibition; format: functional, cell-based
[6] = molecular target: Platelet-activating factor receptor (Homo sapiens, UniProt P25105); experiment: Antagonist activity at PAFR (unknown origin); format: functional
RAW264.7 = experiment: Antiinflammatory activity in LPS-stimulated mouse RAW264.7 cells assessed as inhibition of NO production incubated for 2 hrs followed by LPS stimulation measured after 48 hrs […]; format: functional, cell-based
MCF7 [7] = experiment: Antitumor activity against Adriamycin-resistant human MCF7 cells xenografted in athymic nude BALB/c mouse assessed as tumor growth inhibition at 5 mg/kg, iv measured every 4 days for 40 days by caliper method relative to control; format: functional; conditions: MCF7, 960 h, time 40 day, read-out: TGI

Platelet-activating factor receptor, sequence (P25105 whole entry): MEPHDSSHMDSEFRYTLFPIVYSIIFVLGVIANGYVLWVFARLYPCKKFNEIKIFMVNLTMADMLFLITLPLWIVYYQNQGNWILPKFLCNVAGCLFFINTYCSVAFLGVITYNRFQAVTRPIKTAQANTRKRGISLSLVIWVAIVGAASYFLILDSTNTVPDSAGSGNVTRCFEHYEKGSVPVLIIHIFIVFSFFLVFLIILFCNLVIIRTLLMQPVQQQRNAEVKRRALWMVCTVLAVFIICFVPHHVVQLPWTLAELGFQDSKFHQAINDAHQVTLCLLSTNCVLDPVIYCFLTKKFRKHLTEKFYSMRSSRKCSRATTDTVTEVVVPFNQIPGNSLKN
Tyrosine-protein phosphatase non-receptor type 6, sequence (P29350 whole entry): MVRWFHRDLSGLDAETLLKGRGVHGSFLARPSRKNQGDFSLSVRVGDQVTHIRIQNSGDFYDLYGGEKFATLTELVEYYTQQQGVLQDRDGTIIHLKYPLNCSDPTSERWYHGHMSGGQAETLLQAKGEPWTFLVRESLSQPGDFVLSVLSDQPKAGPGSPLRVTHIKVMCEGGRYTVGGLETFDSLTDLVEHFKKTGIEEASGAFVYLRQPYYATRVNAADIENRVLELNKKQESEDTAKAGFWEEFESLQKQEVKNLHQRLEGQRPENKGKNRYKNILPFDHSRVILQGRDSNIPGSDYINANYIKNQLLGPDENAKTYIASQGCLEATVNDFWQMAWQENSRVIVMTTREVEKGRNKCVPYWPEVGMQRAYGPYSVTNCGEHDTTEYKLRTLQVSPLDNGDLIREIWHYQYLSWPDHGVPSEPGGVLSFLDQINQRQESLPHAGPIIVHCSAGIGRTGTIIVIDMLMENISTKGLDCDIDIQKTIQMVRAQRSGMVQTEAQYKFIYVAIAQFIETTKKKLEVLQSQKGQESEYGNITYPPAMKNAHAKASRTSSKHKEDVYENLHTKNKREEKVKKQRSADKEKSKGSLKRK

Compound: C=C[C@]1(C)C=C2C(=O)C(O)=C3C(C)(C)[C@@H](O)CC[C@]3(C)[C@@]2(O)[C@H](O)C1
- IC50 (MCF7 [1]): > 70 µM

Compound: COC(=O)c1c(C)cc2c(c(C)c1=O)O[C@@]1(C)CC[C@H]3C(C)(C)OC(=O)C=C[C@]3(C)[C@@H]1C2
- IC50 (HCT-116): 13.9 µM

Compound: COC(=O)c1c(C)cc2c(c(C)c1=O)O[C@@]1(C)CC[C@H]3C(C)(C)OC(=O)C[C@@H](O)[C@]3(C)[C@@H]1C2
- IC50 (HCT-116): 13.2 µM

Compound: C=C1[C@@]2(CCC(=O)OC2(C)C)C[C@H](OC(=O)/C(C)=C/C)[C@@]2(C)[C@]34C(=C)[C@@]5(C)OC(=O)[C@@]3(O[C@@]12[C@H]5OC(C)=O)[C@H](C)OC4=O
- IC50 [2]: 1.37 µM

Compound: COC(=O)c1c(C)cc2c(c(C)c1=O)O[C@@]1(C)CC[C@H]3C(C)(C)OC(=O)C[C@@H](OC(C)=O)[C@]3(C)[C@@H]1C2
- IC50 (HCT-116): 10.9 µM

Compound: C=C1[C@@]2(CCC(=O)OC2(C)C)C[C@H](OC(=O)c2ccccc2)[C@@]2(C)[C@@]34C(=O)O[C@@H](C)[C@@]35O[C@@]12[C@@H](OC(C)=O)[C@](C)(OC5=O)C4=O
- IC50 [2]: 1.37 µM

Compound: COC(=O)[C@@]12C(=O)[C@@](C)(O)[C@]1(C)C(C)=C[C@H]1[C@]34CC[C@H](OC(C)=O)C(C)(C)[C@H]3[C@H](C[C@@]12C)OC4=O
- IC50 [3]: 19 µM
- IC50 [4]: 34 µM

Compound: C=C1C23O[C@@]45C(=O)O[C@](C)(C(=C)[C@@]4(C(=O)O[C@H]5C)[C@]2(C)[C@@H](OC(=O)c2ccccc2)C[C@]12CCC(=O)OC2(C)C)[C@@H]3OC(C)=O
- IC50 [2]: 1.37 µM

Compound: COC(=O)[C@@]12C(=O)[C@](C)(O)C(=O)[C@@H](C(C)=C1C)C1[C@]2(C)C[C@@H]2OC(=O)[C@]13CC[C@H](OC(C)=O)C(C)(C)[C@@H]23 (some centres not stated)
- IC50 [3]: 20 µM
- IC50 [4]: 22 µM

Compound: C=C(CO)[C@]1(O)[C@@H](O)[C@@]2(C)[C@H](CCC[C@@H]2C)C[C@@H]1O
- IC50 (HL-60): 20.7 µM

Compound: C[C@H]1C[C@@H](O)[C@@]23C1=C[C@@]1(C)CC[C@](C)(C[C@H](O)[C@H](O)C(C)(C)O)[C@H]1[C@@H]2CC[C@@H]3C
- IC50 [5]: 18 µM

Compound: C=C[C@]1(C)C=C2C(=O)C(O)=C3C(C)(C)[C@@H](O)CC[C@]3(C)[C@@]2(O)CC1
- IC50 (MCF7 [1]): 25.6 µM

Compound: C=C[C@]1(C)C=C2C(=O)C(O)=C3[C@](C)(CO)CC=C[C@]3(C)[C@@]2(O)CC1
- IC50 (HCT-116): 15 µM

Compound: C=C[C@@]1(C)CCC2=C([C@H](O)C(=O)[C@@]3(O)C(C)(C)CCC[C@]23C)[C@H]1O
- IC50 (MCF7 [1]): > 70 µM

Compound: C[C@H]1CC[C@@]23C1=C[C@@]1(C)CC[C@](C)(C[C@H](O)[C@H](O)C4(C)CO4)[C@H]1[C@@H]2CC[C@@H]3C (some centres not stated)
- IC50 [5]: 18 µM

Compound: C=C1[C@@]2(CCC(=O)OC2(C)C)CC[C@@]2(C)[C@]34C(=C)[C@@]5(C)OC(=O)[C@@]3(O[C@@]12[C@H]5O)[C@H](C)OC4=O
- IC50 [2]: 1.37 µM

Compound: C=C1C2=CC[C@@H](C)[C@]1(C)CC[C@]1(C)O[C@H]1CC[C@@]1(C)O[C@@H]1C2=O
- IC50 [6]: 2.8 µM

Compound: C[C@H]1CC[C@@]23C1=C[C@@]1(C)CC[C@](C)(C[C@H](O)[C@H](O)[C@@](C)(O)CO)[C@H]1[C@@H]2CC[C@@H]3C
- IC50 [5]: 18 µM

Compound: C[C@H]1C[C@@H](O)[C@@]23C1=C[C@@]1(C)CC[C@](C)(C[C@H](O)[C@H](O)[C@@](C)(O)CO)[C@H]1[C@@H]2CC[C@@H]3C
- IC50 [5]: 18 µM

Compound: C=C1[C@@H](OC(C)=O)[C@H]2[C@]3(C)[C@H]4CC(=O)C(C)(C)[C@]43C(=O)[C@]3(O)OC4=C(C)OC(=O)[C@@]1(C)[C@]4(C(=O)OC)[C@]23C
- IC50 (RAW264.7): 13.4 µM

Compound: C[C@H]1CC[C@@]23C1=C[C@@]1(C)CC[C@](C)(C[C@H](O)[C@H](O)[C@@](C)(O)CO)[C@H]1[C@@H]2C[C@@H](O)[C@@H]3C
- IC50 [5]: 18 µM

Compound: C[C@@H]1CC=C2C(=O)[C@H]3O[C@]3(C)CC[C@@H]3O[C@@]3(C)CC[C@@]1(C)[C@@H]2C
- IC50 [6]: 2.8 µM

Compound: COc1cccc2c1C(=O)c1c(O)c3c(c(O)c1C2=O)C[C@@](O)(C(=O)CO)C[C@@H]3O[C@H]1C[C@H](N)[C@H](O)[C@H](C)O1 [DOXORUBICIN HYDROCHLORIDE]
- inhibition in vivo at 5 mg/kg (MCF7 [7]): 46%

Compound: COc1ccc2c(c1)c(CC(=O)O)c(C)n2C(=O)c1ccc(Cl)cc1 [INDOMETHACIN]
- IC50 (RAW264.7): 24 µM

Compound: CCOC(=O)C1=C[C@@H](OC(CC)CC)[C@H](NC(C)=O)[C@@H](N)C1 [OSELTAMIVIR]
- IC50 [2]: 0.99 µM

From ChEMBL document CHEMBL5104094, “Chemistry, biosynthesis and biological activity of terpenoids and meroterpenoids in bacteria and fungi isolated from different marine habitats” (Eur J Med Chem, 2021)
